# Numbered stars: 1 amine (or outer) side, 2 acyl side, 3 side chain; on linkers, the order of the positions; unused ones are H or OH. Bridge positions count the residues as written; N and C are the ends. Square brackets hold non-standard residues; d marks the D form. Peptide text beside a SMILES is read from it. * marks the point of attachment. C20 diacid = O=C(O)CCCCCCCCCCCCCCCCCCC(=O)*; γGlu = O=C(O)[C@H](CCC(=O)[*:2])N[*:1]; NMeI = CC[C@H](C)[C@H](NC)C(=O)O; Sar = CNCC(=O)O
# Legend:
# [1] = target: T1, human calcitonin receptor (hCTR2) (Homo sapiens, UniProt P30988); assay: hCTR2 assay: induction of cAMP (AlphaScreen cAMP Assay kit) in COS7 cells expressing hCTR2; type: cell-based
# T1 construct: expressed in transfected cells
# T1 sequence (P30988 25-474): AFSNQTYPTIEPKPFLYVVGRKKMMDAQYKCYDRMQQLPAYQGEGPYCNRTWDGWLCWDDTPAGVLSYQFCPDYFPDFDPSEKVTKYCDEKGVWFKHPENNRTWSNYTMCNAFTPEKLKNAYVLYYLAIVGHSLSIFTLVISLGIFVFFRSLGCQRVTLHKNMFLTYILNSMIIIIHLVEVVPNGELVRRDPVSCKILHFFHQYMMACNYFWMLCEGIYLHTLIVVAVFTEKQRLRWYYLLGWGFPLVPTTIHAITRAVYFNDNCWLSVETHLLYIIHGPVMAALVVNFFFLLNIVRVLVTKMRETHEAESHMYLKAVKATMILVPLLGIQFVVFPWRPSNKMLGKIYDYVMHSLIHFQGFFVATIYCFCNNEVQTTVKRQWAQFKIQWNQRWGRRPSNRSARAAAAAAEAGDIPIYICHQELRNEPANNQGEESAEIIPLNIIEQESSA
# Method in brief: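 Cells were seeded one day ahead, washed, then exposed to rising peptide concentrations for 15 min at 37° C in the presence of 100 µM IBMX. After lysis for 10 min at room temperature, cAMP was quantified by AlphaScreen and EC50 values derived by 4PL fitting.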
# [2] = target: T2, human amylin receptor 3 (hAMYR3) consisting of hCTR2 co-expressed with human Receptor Activity Modifying Protein 3 (hRAMP3) (Homo sapiens, UniProt O60896+P30988); assay: hAMYR3 assay: induction of cAMP (AlphaScreen cAMP Assay kit) in COS7 cells expressing hAMYR3; type: cell-based; conditions: cAMP induction in COS7 cells expressing hAMYR3; average of a minimum of 3 determinations; read-out: hAMY R3 EC50
# T2 construct: expressed in transfected cells
# T2 sequence (P30988 25-474): T1 sequence (P30988 25-474)
# T2 sequence (O60896 24-148 partner): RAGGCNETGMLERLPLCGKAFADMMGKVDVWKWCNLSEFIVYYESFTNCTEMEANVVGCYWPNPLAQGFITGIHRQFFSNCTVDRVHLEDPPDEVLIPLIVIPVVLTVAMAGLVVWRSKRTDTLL
# Method in brief: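 cAMP accumulation read by AlphaScreen in lysates of RAMP-naive COS7 cells stably transfected with hCTR2 plus hRAMP3. Cells exposed to peptide dilutions for 15 min, 37° C, with 100 µM IBMX; 4PL fitting gave EC50 and efficacy relative to pramlintide.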
# [3] = Solubility assessment (turbidity absorbance at 325 nm); type: physicochemical; conditions: stock 2 mg/ml diluted 1:1, ambient temperature (typically 25°C), n=1; for Solubility, Acetate buffer pH 4: 100 mM acetate buffer pH 4.0; for Solubility, Acetate buffer pH 5: 100 mM acetate buffer pH 5.0; for Solubility, Histidine buffer pH 6: 100 mM histidine buffer pH 6.0; for Solubility, Histidine buffer pH 7: 100 mM histidine buffer pH 7.0; for Solubility, Phosphate buffer pH 6: 100 mM phosphate buffer pH 6.0; for Solubility, Phosphate buffer pH 7: 100 mM phosphate buffer pH 7.0; for Solubility, Phosphate buffer pH 7.5: 100 mM phosphate buffer pH7.5
# Method in brief: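 Read-out: turbidity as absorbance at 325 nm (280 nm also read), single samples, ambient temperature of typically 25°C. Samples were a 1:1 mix of 2 mg/ml stock (water, pH 2.5) with 100 mM acetate, histidine or phosphate buffers spanning pH 4.0–7.5. Cut-off: A325 ≤ 0.02 indicates ≥ 1 mg/ml.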
# [4] = Assessment of physical stability: fibril formation detected with Thioflavin T (ThT), lag-time; type: physicochemical; conditions: 1 mg/ml peptide, 40 µM ThT, FND = Fibrillation not detected; for Fibrillation lag time (hours) pH 4.0 (Ac): 50 mM acetate buffer pH 4.0, 96 hours at 40°C; for Fibrillation lag time (hours) pH 7.0 (Ph): 50 mM phosphate buffer pH 7.0, 96 hours at 40°C
# Method: Solutions containing (i) 1 mg/ml of test peptide, 40 µM ThT and 50 mM phosphate (Ph) buffer (pH 7.0), (ii) 1 mg/ml of test peptide, 40 µM ThT and 50 mM histidine (His) buffer (pH 7.0), and (iii) 1 mg/ml of test peptide, 40 µM ThT and 50 mM acetate (Ac) buffer (pH 4.0), were loaded in a 96-well black fluorescence plate (clear bottom) in triplicate. Data were collected at fixed intervals of 10 min, each preceded by 300 s of automixing (agitation), over a period of 96 hours at 40° C. Physical stability, expressed as lag-time of fibril formation (in hours), was defined as the intersection between two linear regressions representing the initial stable phase and the growth phase.
SMILES,EC50 [1],EC50 [2],"Solubility, Acetate buffer pH 4 [3]","Solubility, Acetate buffer pH 5 [3]","Solubility, Histidine buffer pH 6 [3]","Solubility, Histidine buffer pH 7 [3]","Solubility, Phosphate buffer pH 6 [3]","Solubility, Phosphate buffer pH 7 [3]","Solubility, Phosphate buffer pH 7.5 [3]",Fibrillation lag time (hours) pH 4.0 (Ac) [4],Fibrillation lag time (hours) pH 7.0 (Ph) [4],"Fibrillation lag time (hours) pH 7.0 (His) ([4]; 50 mM histidine buffer pH 7.0, 96 hours at 40°C)"
"CC[C@H](C)[C@@H](C(=O)N[C@@H](CC(C)C)C(=O)N[C@@H](CO)C(=O)N[C@@H](CO)C(=O)N[C@H](C(=O)N[C@@H](CC(N)=O)C(=O)N[C@H](C(=O)NCC(=O)N[C@@H](CO)C(=O)N[C@@H](CC(N)=O)C(=O)N[C@H](C(=O)N1CCC[C@H]1C(N)=O)[C@@H](C)O)C(C)C)[C@@H](C)O)N(C)C(=O)CN(C)C(=O)[C@H](Cc1ccccc1)NC(=O)[C@H](CC(N)=O)NC(=O)[C@H](CC(N)=O)NC(=O)[C@H](CO)NC(=O)[C@H](CO)NC(=O)[C@H](Cc1c[nH]cn1)NC(=O)[C@H](Cc1c[nH]cn1)NC(=O)[C@H](CC(C)C)NC(=O)[C@H](Cc1ccccc1)NC(=O)[C@H](CCC(=O)O)NC(=O)[C@H](C)NC(=O)[C@H](CC(C)C)NC(=O)[C@H](CCCNC(=N)N)NC(=O)[C@H](CCC(N)=O)NC(=O)[C@@H](NC(=O)[C@H](C)NC(=O)[C@@H]1CSSC[C@H](NC(=O)[C@H](CCCNC(=N)N)NC(=O)CC[C@H](NC(=O)CCCCCCCCCCCCCCCCCCC(=O)O)C(=O)O)C(=O)N[C@@H](CC(N)=O)C(=O)N[C@@H]([C@@H](C)O)C(=O)N[C@@H](C)C(=O)N[C@@H]([C@@H](C)O)C(=O)N1)[C@@H](C)O [Compound 2, [19CD]-isoGlu-RC()NTATC()ATQRLAEFLHHSSNNF-Gly(Me)-Ile(Me)-LSSTNVGSNTP-NH2] ({C20 diacid-γGlu}-RCNTATCATQRLAEFLHHSSNNF[Sar][NMeI]LSSTNVGSNTP-NH2; disulfide 2-7)",0.16 nM,0.26 nM,SS (SS indicates solubility ≥ 1mg/ml),SS (SS indicates solubility ≥ 1mg/ml),SS (SS indicates solubility ≥ 1mg/ml),SS (SS indicates solubility ≥ 1mg/ml),SS (SS indicates solubility ≥ 1mg/ml),SS (SS indicates solubility ≥ 1mg/ml),II (II indicates solubility ≤ 1 mg/ml),FND^&&,FND^&&,
"CC[C@H](C)[C@@H](C(=O)N[C@@H](CC(C)C)C(=O)N1CCC[C@H]1C(=O)N1CCC[C@H]1C(=O)N[C@H](C(=O)N[C@@H](CC(N)=O)C(=O)N[C@H](C(=O)NCC(=O)N[C@@H](CO)C(=O)N[C@@H](CC(N)=O)C(=O)N[C@H](C(=O)N1CCC[C@H]1C(N)=O)[C@@H](C)O)C(C)C)[C@@H](C)O)N(C)C(=O)[C@@H]1CCCN1C(=O)CN(C)C(=O)[C@H](Cc1ccccc1)NC(=O)[C@H](CC(N)=O)NC(=O)[C@H](CC(N)=O)NC(=O)[C@H](CO)NC(=O)[C@H](CO)NC(=O)[C@H](Cc1c[nH]cn1)NC(=O)[C@H](Cc1c[nH]cn1)NC(=O)[C@H](CC(C)C)NC(=O)[C@H](Cc1ccccc1)NC(=O)[C@H](CCC(=O)O)NC(=O)[C@H](C)NC(=O)[C@H](CC(C)C)NC(=O)[C@H](CCCNC(=N)N)NC(=O)[C@H](CCC(N)=O)NC(=O)[C@@H](NC(=O)[C@H](C)NC(=O)[C@@H]1CSSC[C@H](NC(=O)[C@H](CCCNC(=N)N)NC(=O)CC[C@H](NC(=O)CCCCCCCCCCCCCCCCCCC(=O)O)C(=O)O)C(=O)N[C@@H](CC(N)=O)C(=O)N[C@@H]([C@@H](C)O)C(=O)N[C@@H](C)C(=O)N[C@@H]([C@@H](C)O)C(=O)N1)[C@@H](C)O [Compound 175, [19CD]-isoGlu-RC()NTATC()ATQRLAEFLHHSSNNF-Gly(Me)-P-Ile(Me)-LPPTNVGSNTP-NH2] ({C20 diacid-γGlu}-RCNTATCATQRLAEFLHHSSNNF[Sar]P[NMeI]LPPTNVGSNTP-NH2; disulfide 2-7)",0.2 nM,0.2 nM,SS (SS indicates solubility ≥ 1mg/ml),SS (SS indicates solubility ≥ 1mg/ml),SS (SS indicates solubility ≥ 1mg/ml),SS (SS indicates solubility ≥ 1mg/ml),SS (SS indicates solubility ≥ 1mg/ml),SS (SS indicates solubility ≥ 1mg/ml),II (II indicates solubility ≤ 1 mg/ml),FND,FND,
"CC[C@H](C)[C@@H](C(=O)N[C@@H](CC(C)C)C(=O)N[C@@H](CO)C(=O)N[C@@H](CO)C(=O)N[C@H](C(=O)N[C@@H](CC(N)=O)C(=O)N[C@H](C(=O)NCC(=O)N[C@@H](CO)C(=O)N[C@@H](Cc1c[nH]cn1)C(=O)N[C@H](C(=O)N[C@@H](Cc1ccc(O)cc1)C(N)=O)[C@@H](C)O)C(C)C)[C@@H](C)O)N(C)C(=O)[C@H](C)NC(=O)CN(C)C(=O)[C@H](Cc1ccccc1)NC(=O)[C@H](CC(N)=O)NC(=O)[C@H](CC(N)=O)NC(=O)[C@H](CO)NC(=O)[C@H](CO)NC(=O)[C@H](Cc1c[nH]cn1)NC(=O)[C@H](Cc1c[nH]cn1)NC(=O)[C@H](CC(C)C)NC(=O)[C@H](Cc1ccccc1)NC(=O)[C@H](CCC(=O)O)NC(=O)[C@H](C)NC(=O)[C@H](CC(C)C)NC(=O)[C@H](CCCNC(=N)N)NC(=O)[C@H](CCC(N)=O)NC(=O)[C@@H](NC(=O)[C@H](C)NC(=O)[C@@H]1CSSC[C@H](NC(=O)[C@H](CCCCN)NC(=O)CC[C@H](NC(=O)CCCCCCCCCCCCCCCCCCC(=O)O)C(=O)O)C(=O)N[C@@H](CC(N)=O)C(=O)N[C@@H]([C@@H](C)O)C(=O)N[C@@H](C)C(=O)N[C@@H]([C@@H](C)O)C(=O)N1)[C@@H](C)O [Compound 3, [19CD]-isoGlu-KC()NTATC()ATQRLAEFLHHSSNNF-Gly(Me)-A-Ile(Me)-LSSTNVGSHTY-NH2] ({C20 diacid-γGlu}-KCNTATCATQRLAEFLHHSSNNF[Sar]A[NMeI]LSSTNVGSHTY-NH2; disulfide 2-7)",1.3 nM,,SS (SS indicates solubility ≥ 1mg/ml),SS (SS indicates solubility ≥ 1mg/ml),SS (SS indicates solubility ≥ 1mg/ml),II** (II indicates solubility ≤ 1 mg/ml),SS (SS indicates solubility ≥ 1mg/ml),II (II indicates solubility ≤ 1 mg/ml),II (II indicates solubility ≤ 1 mg/ml),FND,FND,FND
